# From patent publication US20080293587A1, “Method of Screening a Biological Target for Weak Interactions Using Weak Affinity Chromatography” (Transientic Interactions AB, priority 2005, published 2008)
# Biological target: bovine serum albumin (BSA) (Bos taurus, UniProt P02769)
# Conditions: bupivacain 1 mM; for retardation in zonal weak affinity chromatography in a well (peak apex): immobilized BSA, mobile phase 0.05 M sodium phosphate buffer pH 7.0, 20° C., UV 230 nm, propranolol 0.25 mM, sodium azide 0.5 mM
# Procedure: 200 mg of reference gel (diol-silica) and assay gel (BSA-diol-silica) were suspended in 1 ml methanol and packed into each well in a 96-well filtering system (Captiva® 96-well 10μ glassfiber filter plate from Ansys Technologies (Company), see FIG. 1) using vacuum applied to the wells. The gel in the wells was first washed with 5 ml MeOH and then with 5 ml 0.1 M sodium phosphate buffer pH 7.0. Filter discs were placed on top of the gel material in each well.
# Wells containing gel materials were washed carefully with 0.05 M sodium phosphate buffer pH 7.0 using vacuum collar to remove non-bound BSA, contaminants and entrapped air. The excess of buffer was gently removed from the surface of the wells using pipette and 10 μl of test substances were injected centrally in each wells which were then flushed with mobile phase (0.05 M sodium phosphate buffer pH 7.0). Vacuum was applied to the collar and the mobile phase was flowed into a 96 well collection plate (Nunclon, Nalgene-Nunc) within 8-10 seconds. Vacuum was then reduced and the collection plate (approximately 0.2 ml in each well) was replaced with a new one. This fraction collection process was repeated with 20-75 plates. During this procedure the wells were eluted with mobile phase continuously. […] The eluates in the plates were transferred carefully by automatic pipettes and weighed to estimate the retention volume. All procedures were performed at room temperature (20° C.). Eluted substances were detected by UV-scans at 230 nm. Chromatograms were obtained by plotting UV absorbance versus fraction volume.
# Chain of bovine serum albumin (BSA) (P02769 25-607): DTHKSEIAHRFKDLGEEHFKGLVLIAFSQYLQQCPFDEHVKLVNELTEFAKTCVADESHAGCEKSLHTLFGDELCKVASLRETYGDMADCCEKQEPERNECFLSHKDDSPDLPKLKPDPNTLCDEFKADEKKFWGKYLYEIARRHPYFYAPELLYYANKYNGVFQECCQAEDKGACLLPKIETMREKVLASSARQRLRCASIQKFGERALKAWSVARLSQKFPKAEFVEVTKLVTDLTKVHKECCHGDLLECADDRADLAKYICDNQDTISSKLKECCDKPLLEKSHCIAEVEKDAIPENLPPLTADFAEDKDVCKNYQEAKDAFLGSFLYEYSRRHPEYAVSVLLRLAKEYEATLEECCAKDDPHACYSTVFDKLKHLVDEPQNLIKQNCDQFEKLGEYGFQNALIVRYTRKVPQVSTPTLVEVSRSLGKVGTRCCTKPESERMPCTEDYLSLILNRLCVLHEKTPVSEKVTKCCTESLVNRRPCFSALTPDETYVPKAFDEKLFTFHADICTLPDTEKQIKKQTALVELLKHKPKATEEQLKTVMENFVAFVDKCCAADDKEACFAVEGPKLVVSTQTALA
"well-to-well reproducibility of retardation in zonal weak affinity chromatography (three different wells, chromatography repeated once in each well)",retardation in zonal weak affinity chromatography in a well (peak apex),SMILES
retarded,retarded,CCCCN1CCCCC1C(=O)Nc1c(C)cccc1C (stereo not drawn) [Bupivacain]
,retarded,CC(C)NCC(O)COc1cccc2ccccc12 (stereo not drawn) [propranolol]
